Laboratory results from patent US6521764B1, “Process for the preparation of fumagillin” (Sanofi-Synthelabo, priority 1999, dated 2003).

Assays:
[1] = 2-week stability study of Fumagillin samples obtained by various methods, Fumagillin content by HPLC before and after stressing; format: physicochemical; conditions: for HPLC Assay, After 2 weeks at 40° C., ambient humidity / HPLC Assay, Initial: 3 equivalent acetic acid; for HPLC Assay, Initial: before stressing
Procedure: We carried out a 2-week stability study at 40 OC , ambient humidity, of selected samples obtained by various methods. The Fumagillin content of the samples was measured by HPLC before and after the stressing.

[2] = at -80 °C; cited from earlier work
[3] = sample liberated from methanol, crude product
[4] = sample liberated from methanol-dichloromethane 5:1, crude product
[5] = sample liberated from toluene, crude product
[6] = sample liberated in aqueous medium, followed by extraction with dichloromethane, concentration and crystallization in methanol

## CO[C@@H]1[C@H](OC(=O)/C=C/C=C/C=C/C=C/C(=O)O)CC[C@]2(CO2)[C@H]1[C@@]1(C)O[C@@H]1CC=C(C)C [Fumagillin]
[1]; [3]
  HPLC Assay, After 2 weeks at 40° C., ambient humidity: 85.1%
  HPLC Assay, Initial: 97.6%
[1]; [4]
  HPLC Assay, After 2 weeks at 40° C., ambient humidity: 49.9%
  HPLC Assay, Initial: 96.3%
[1]; [5]
  HPLC Assay, After 2 weeks at 40° C., ambient humidity: 61.0%
  HPLC Assay, Initial: 92.6%
[1]; [6]
  HPLC Assay, After 2 weeks at 40° C., ambient humidity: 54.9%
  HPLC Assay, Initial: 96.9%
[1]; samples obtained by the alcoholic method, 2 weeks at 40 °C, ambient humidity
  Stability compared with samples obtained by other methods: considerably more stable
[2]
  Stability on storage: stable
